Results reported in US20240109864A1, “SUBSTITUTED PYRAZOLYL PIPERIDINE CARBOXYLIC ACIDS” (BAYER AKTIENGESELLSCHAFT, priority 2020, published 2024).
Where a name gives a salt, the structure may show the parent alone.

Target: T1, recombinant guanylate cyclase reporter cell line (Rattus norvegicus, UniProt P20595)
T1 construct: expressed in transfected cells
T1 sequence (P20595 1-619): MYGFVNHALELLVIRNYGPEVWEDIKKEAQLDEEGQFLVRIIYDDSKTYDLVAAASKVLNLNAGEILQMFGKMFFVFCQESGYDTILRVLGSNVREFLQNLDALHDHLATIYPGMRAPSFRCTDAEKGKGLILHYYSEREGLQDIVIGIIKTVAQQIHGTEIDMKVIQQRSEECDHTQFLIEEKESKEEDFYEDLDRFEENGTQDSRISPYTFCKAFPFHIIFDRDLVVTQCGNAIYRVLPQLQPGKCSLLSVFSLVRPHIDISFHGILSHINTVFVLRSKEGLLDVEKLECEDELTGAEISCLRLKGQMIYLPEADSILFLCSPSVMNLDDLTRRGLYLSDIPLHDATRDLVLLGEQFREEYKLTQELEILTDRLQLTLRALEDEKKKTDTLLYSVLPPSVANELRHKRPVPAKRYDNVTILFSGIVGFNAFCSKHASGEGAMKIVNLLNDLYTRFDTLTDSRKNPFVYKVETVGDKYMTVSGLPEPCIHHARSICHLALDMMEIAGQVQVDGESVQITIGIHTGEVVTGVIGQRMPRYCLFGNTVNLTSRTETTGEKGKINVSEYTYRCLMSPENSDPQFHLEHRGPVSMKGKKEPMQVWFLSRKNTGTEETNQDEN
T1 sequence (P19686 1-690 partner): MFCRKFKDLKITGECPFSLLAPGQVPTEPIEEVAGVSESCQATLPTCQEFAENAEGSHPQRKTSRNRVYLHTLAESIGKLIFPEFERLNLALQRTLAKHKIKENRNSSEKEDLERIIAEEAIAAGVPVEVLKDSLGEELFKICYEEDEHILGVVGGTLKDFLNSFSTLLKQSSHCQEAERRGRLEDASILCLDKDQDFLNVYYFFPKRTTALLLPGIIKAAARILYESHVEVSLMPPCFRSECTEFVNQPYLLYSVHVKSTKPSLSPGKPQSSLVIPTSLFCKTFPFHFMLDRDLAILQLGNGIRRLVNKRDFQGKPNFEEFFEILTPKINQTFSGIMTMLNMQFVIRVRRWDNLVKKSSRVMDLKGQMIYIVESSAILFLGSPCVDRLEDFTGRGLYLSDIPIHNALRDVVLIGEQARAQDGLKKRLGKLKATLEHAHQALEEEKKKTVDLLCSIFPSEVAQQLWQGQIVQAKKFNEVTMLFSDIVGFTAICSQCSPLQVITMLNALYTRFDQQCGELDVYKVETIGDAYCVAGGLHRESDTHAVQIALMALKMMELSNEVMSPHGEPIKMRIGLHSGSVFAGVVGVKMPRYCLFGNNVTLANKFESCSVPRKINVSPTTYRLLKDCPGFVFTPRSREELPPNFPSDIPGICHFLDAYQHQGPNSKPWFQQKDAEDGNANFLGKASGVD
Assay: Effect on a recombinant guanylate cyclase reporter cell line
Assay type: cell-based
Conditions: in some cases mean values from individual determinations; for MEC: MEC = minimum effective concentration; for EC50: half maximal effective concentration
Protocol: The cellular activity of the compounds according to the invention was determined using a recombinant guanylate cyclase reporter cell line, as described in F. Wunder et al., Anal. Biochem. 339, 104-112 (2005).

SMILES | MEC [nM] | EC50 [nM] | MEC (hydrochloride) [nM]
O=C(O)c1cnn(C2CCCN(c3cc(Cl)ccc3-c3ccc(N4CCN(CC5CC5(F)F)CC4)cc3)C2)c1C(F)(F)F (mixture of isomers) [Example 31, 1-[1-[5-Chloro-2-[4-[4-[[2,2-difluorocyclopropyl]methyl]piperazin-1-yl]phenyl]phenyl]-3-piperidyl]-5-(trifluoromethyl)pyrazole-4-carboxylic acid hydrochloride] | 1.0 | 3.8 | 
N#CCCN1CCN(c2ccc(-c3ccc(Cl)cc3N3CCCC(n4ncc(C(=O)O)c4C(F)(F)F)C3)cc2)CC1 (single isomer, unassigned) [Example 5, 1-[1-[5-Chloro-2-[4-[4-(2-cyanoethyl)piperazin-1-yl]phenyl]phenyl]-3-piperidyl]-5-(trifluoromethyl)pyrazole-4-carboxylic acid] | 1.0 | 4.8 | 
CC(C)N1CCN(c2ccc(-c3ccc(Cl)cc3N3CCCC(n4ncc(C(=O)O)c4C(F)(F)F)C3)cc2)CC1 (single isomer, unassigned) [Example 6, 1-[1-[5-Chloro-2-[4-(4-isopropylpiperazin-1-yl)phenyl]phenyl]-3-piperidyl]-5-(trifluoromethyl)pyrazole-4-carboxylic acid hydrochloride] | 10.0 | 88 | 
O=C(O)c1cnn(C2CCCN(c3cc(Cl)ccc3-c3ccc(N4CCN(C[C@@H]5C[C@@H]5F)CC4)cc3)C2)c1C(F)(F)F (single isomer, unassigned) [Example 8, hydrochloride] |  | 53 | 10.0
CC(C)(F)CN1CCN(c2ccc(-c3ccc(Cl)cc3N3CCCC(n4ncc(C(=O)O)c4C(F)(F)F)C3)cc2)CC1.Cl (single isomer, unassigned) [Example 10, 1-[1-[5-Chloro-2-[4-[4-(2-fluoro-2-methyl-propyl)piperazin-1-yl]phenyl]phenyl]-3-piperidyl]-5-(trifluoromethyl)pyrazole-4-carboxylic acid hydrochloride] | 3.0 | 24.5 | 
O=C(O)c1cnn(C2CCCN(c3cc(Cl)ccc3-c3ccc(N4CCN(CC(F)F)CC4)cc3)C2)c1C(F)(F)F (single isomer, unassigned) [Example 13, 1-[1-[5-Chloro-2-[4-[4-(2,2-difluoroethyl)piperazin-1-yl]phenyl]phenyl]-3-piperidyl]-5-(trifluoromethyl)pyrazole-4-carboxylic acid] | 3.0 | 54 | 
O=C(O)c1cnn(C2CCCN(c3cc(Cl)ccc3-c3ccc(N4CCN(CC(F)(F)F)CC4)cc3)C2)c1C(F)(F)F (single isomer, unassigned) [Example 15, 1-[1-[5-Chloro-2-[4-[4-(2,2,2-trifluoroethyl)piperazin-1-yl]phenyl]phenyl]-3-piperidyl]-5-(trifluoromethyl)pyrazole-4-carboxylic acid] | 0.6 |  | 
O=C(O)c1cnn(C2CCCN(c3cc(Cl)ccc3-c3ccc(N4CCN(CCC(F)(F)F)CC4)cc3)C2)c1C(F)(F)F (single isomer, unassigned) [Example 17, 1-[1-[5-Chloro-2-[4-[4-(3,3,3-trifluoropropyl)piperazin-1-yl]phenyl]phenyl]-3-piperidyl]-5-(trifluoromethyl)pyrazole-4-carboxylic acid hydrochloride] | <0.3 | 1.4 | 

The remaining compounds from weak to strong by EC50, led by results:

MEC [nM] | EC50 [nM] | MEC (hydrochloride) [nM] | SMILES
10.0 | 66.5 |  | CCN1CCN(c2ccc(-c3ccc(Cl)cc3N3CCCC(n4ncc(C(=O)O)c4C(F)(F)F)C3)cc2)CC1 (single isomer, unassigned) [Example 3, 1-{1-[4-Chloro-4′-(4-ethylpiperazin-1-yl)[1,1′-biphenyl]-2-yl]piperidin-3-yl}-5-(trifluoromethyl)-1H-pyrazole-4-carboxylic acid hydrochloride]
10.0 | 63.5 |  | CC(C)(C)CN1CCN(c2ccc(-c3ccc(Cl)cc3N3CCCC(n4ncc(C(=O)O)c4C(F)(F)F)C3)cc2)CC1 (single isomer, unassigned) [Example 18, 1-[1-[5-Chloro-2-[4-[4-(2,2-dimethylpropyl)piperazin-1-yl]phenyl]phenyl]-3-piperidyl]-5-(trifluoromethyl)pyrazole-4-carboxylic acid hydrochloride]
10.0 | 47.5 |  | CN1CCN(c2ccc(-c3ccc(Cl)cc3N3CCCC(n4ncc(C(=O)O)c4C(F)(F)F)C3)cc2)CC1 (single isomer, unassigned) [Example 1, 1-[1-[5-Chloro-2-[4-(4-methylpiperazin-1-yl)phenyl]phenyl]-3-piperidyl]-5-(trifluoromethyl)pyrazole-4-carboxylic acid]
 | 28.8 | 5.5 | CN1CCN(c2ccc(-c3ccc(Cl)cc3N3CCCC(n4ncc(C(=O)O)c4C(F)(F)F)C3)cc2)CC1 (single isomer, unassigned) [Example 2, 1-{1-[4-Chloro-4′-(4-methylpiperazin-1-yl)[1,1′-biphenyl]-2-yl]piperidin-3-yl}-5-(trifluoromethyl)-1H-pyrazole-4-carboxylic acid hydrochloride]
3.0 | 16 |  | CCCN1CCN(c2ccc(-c3ccc(Cl)cc3N3CCCC(n4ncc(C(=O)O)c4C(F)(F)F)C3)cc2)CC1 (single isomer, unassigned) [Example 4, 1-[1-[5-Chloro-2-[4-(4-propylpiperazin-1-yl)phenyl]phenyl]-3-piperidyl]-5-(trifluoromethyl)pyrazole-4-carboxylic acid hydrochloride]
3.0 | 14.4 |  | O=C(O)c1cnn(C2CCCN(c3cc(Cl)ccc3-c3ccc(N4CCN(CC(F)(F)F)CC4)cc3)C2)c1C(F)(F)F (single isomer, unassigned) [Example 16, 1-[1-[5-Chloro-2-[4-[4-(2,2,2-trifluoroethyl)piperazin-1-yl]phenyl]phenyl]-3-piperidyl]-5-(trifluoromethyl)pyrazole-4-carboxylic acid]
 | 4.6 | 1.0 | O=C(O)c1cnn(C2CCCN(c3cc(Cl)ccc3-c3ccc(N4CCN(CC(F)F)CC4)cc3)C2)c1C(F)(F)F (single isomer, unassigned) [Example 12, 1-[1-[5-Chloro-2-[4-[4-(2,2-difluoroethyl)piperazin-1-yl]phenyl]phenyl]-3-piperidyl]-5-(trifluoromethyl)pyrazole-4-carboxylic acid hydrochloride]
0.3 | 3.1 |  | O=C(O)c1cnn(C2CCCN(c3cc(Cl)ccc3-c3ccc(N4CCN(CCC(F)F)CC4)cc3)C2)c1C(F)(F)F (single isomer, unassigned) [Example 14, 1-[1-[5-Chloro-2-[4-[4-(3,3-difluoropropyl)piperazin-1-yl]phenyl]phenyl]-3-piperidyl]-5-(trifluoromethyl)pyrazole-4-carboxylic acid hydrochloride]
0.3 | 1.4 |  | CC(F)(F)CN1CCN(c2ccc(-c3ccc(Cl)cc3N3CCCC(n4ncc(C(=O)O)c4C(F)(F)F)C3)cc2)CC1 (single isomer, unassigned) [Example 11, 1-[1-[5-Chloro-2-[4-[4-(2,2-difluoropropyl)piperazin-1-yl]phenyl]phenyl]-3-piperidyl]-5-(trifluoromethyl)pyrazole-4-carboxylic acid hydrochloride]
0.3 | 1.1 |  | O=C(O)c1cnn(C2CCCN(c3cc(Cl)ccc3-c3ccc(N4CCN(CC5(F)CC5)CC4)cc3)C2)c1C(F)(F)F (single isomer, unassigned) [Example 9, 1-[1-[5-Chloro-2-[4-[4-[(1-fluorocyclopropyl)methyl]piperazin-1-yl]phenyl]phenyl]-3-piperidyl]-5-(trifluoromethyl)pyrazole-4-carboxylic acid hydrochloride]
